Assay results: patent publication US20130303564A1, “METHOD FOR TREATING A NEURODEGENERATIVE DISORDER” (RUSH UNIVERSITY MEDICAL CENTER, priority 2012, published 2013)

Key:
primary human astroglia = details: 6 h preincubation, IL-1β 48 h
Experimental: (§1) Primary mouse microglia were treated with different concentrations of NaPB for 6 h followed by stimulation with LPS under serum-free condition. After 24 h of stimulation, concentrations of nitrite were measured in supernatants (A) and the level of iNOS protein was monitored in cells by Western blot (B). […] After 5 h of stimulation, the expression of iNOS mRNA was monitored by semi-quantitative RT-PCR (C). Cells preinctibated with different concentration of trichostatin A (TSA) and sodium butyrate (NaBu) for 6 h were stimulated with LPS for 24 h under serum-free condition followed by monitoring the level of nitrite in supernatants (p). […] Primary human astroglia isolated from fetal brain tissues were treated with different concentrations of NaPB for 6 h followed by stimulation with IL-1β under serum-free condition. After 48 h of stimulation, concentrations of nitrite (E) were measured in supernatants. Human astroglia plated at 70-80% confluence in 12-well plates were co-transfected with 0.25 μg of phiNOS(7.2)Luc and 12.5 ng of pRL-TK using the Lipofectamine-Plus (Invitrogen). Twenty-four h after transfection, cells received NaPB. After 6 h of incubation, cells were stimulated with IL-1β (20 ng/ml) for 12 h. Firefly (ff-Luc) and Renilla (r-Luc) luciferase activities were obtained by analyzing the total cell extract (F).

human iNOS promoter = details: phiNOS(7.2)Luc; 6 h preincubation, IL-1β 20 ng/ml 12 h
Experimental: as §1

TNF-α [1] = details: 200 mg/kg body wt/d from 3 h after last MPTP; RT-PCR, real-time PCR
Experimental: (§2) A) Mice were treated with NaPB (200 mg/kg body wt/d) from 3 h after the last injection of MPTP. […] The mRNA expression of TNF-α, iNOS and IL-1β was analyzed by semi-quantitative RT-PCR (C) and quantitative real-time PCR (D).
(§3) Semi-quantitative RT-PCR analysis for proinflammatory molecules (iNOS, IL-1β and TNF-α) and glial cell markers: Total RNA was isolated from ventral midbrain using Ultraspec-II RNA reagent (Biotecx .Laboratories, Inc., Houston, Tex.) following manufacturer's protocol. To remove any contaminating genomic DNA, total RNA was digested with DNase. RT-PCR was carried out using a RT-PCR kit (Clontech., Mountain View, Calif.) and following primers.
(§4) Real-time PCR analysis: It was performed in the ABI-Prism7700 sequence detection system (Applied Biosystems, Foster City, Calif.) using TaqMan Universal Master mix and optimized concentrations of FAM-labeled probes and primers.

IL-1β [2] = details: 200 mg/kg body wt/d from 3 h after last MPTP; RT-PCR, real-time PCR
Experimental: as §2, §3, §4

iNOS [3] = system: iNOS
Experimental: as §2, §3, §4

MPTP-intoxicated mice [4] = test: HPLC analysis of striatal dopamine in acute MPTP-intoxicated mice; type: in vivo, mouse; details: NaPB 200 mg/kg body wt/day from 3 h after last MPTP; 7 days; MPTP alone about 76% decrease
Experimental: (§7) Mice receiving NaPB (200 mg/kg body wt/day) from 3 h after the last injection of MPTP were sacrificed 7d after the last injection of MPTP followed by TH immunostaining of SNpc (A) and striatum (B), counting of TH-positive neurons in SNpc (C), quantification of TH-positive fibers in striatum (D), assay of neurotransmitters in striatum (E), and quantification of GSH in nigra (F). Data are means+SEM of eight mice per group. ^ap<0.0001 vs saline group; ^bp<0.0001 vs the MPTP group.
Animals and MPTP intoxications: Six- to eight-week old C57BL/6 mice were purchased from Harlan, Indianapolis, Ind. For acute MPTP intoxication, mice received four intraperitoneal (i.p.) injections of MPTP-HCl (18 mg/kg of free base; Sigma Chemical Co., St. Louis, Mo.) in saline at 2 hr intervals. Control animals received only saline.
HPLC analysis of striatal dopamine and its metabolite levels: Striatal level of dopamine, DOPAC (3,4-dihydroxyphenylacetic acid) and HVA (homovanillic acid) was quantified. […] After pH adjustment and filtration, lOul of supernatant was injected onto an Eicompak SC-3ODS column (Complete Stand-Alone HPLC-ECD System EiCOMITTEC-500 from JM Science Inc., Grand Island, N.Y.) and analyzed following manufacturer's protocol.

iNOS [5] = system: iNOS; remark: listed apart in the source
Experimental: as §1, with “(F). […]” for “(F).”

TNF-α [6] = details: different concentrations, 6 h preincubation, 1 μM MPP+ 5 h
Experimental: (§5) Mouse BV-2 microglial cells were treated with different concentrations of NaPB for 6 h followed by stimulation with 1 μM. MPP under serum-free condition. After 5 h of stimulation, the mRNA expression of iNOS, IL-1β and TNF-α was monitored by semi-quantitative RT-PCR (A) and quantitative real-time PCR (C, iNOS; D, IL-1β; E, TNF-α). After 24 h of stimulation, the protein expression of iNOS was monitored by Western blot (B).
(§6) Glial inflammation is a critical component of PD pathogenesis which is mirrored in MPTP mouse models. The neurotoxic effect of MPTP depends on its conversion into MPP+. In glial cells, MAO-B converts MPTP to MPP+, which then leads to glial activation. MPP+ is able to stimulate the microglial expression of inflammatory molecules including NO, TNF-α, IL-1β, and IL-6. Although, a well characterized receptor for MPP+ was not known in microglial cells until recent past, low dose of MPP+ stimulates microglial activation via the engagement of cysteinyl leukotriene receptor (CysLT1R), MPP+ dependent activation of CysLT1R and its subsequent translocation from plasma membrane to cytosol plays a critical role in the process of microglial activation. Therefore, we investigated MPP+ could induce the expression of proinflammatory molecules microglia and if NaPB suppressed such induction.
as §4

IL-1β [7] = details: different concentrations, 6 h preincubation, 1 μM MPP+ 5 h
Experimental: as §5, §6, §4

iNOS [8] = system: iNOS; remark: listed apart in the source
Experimental: as §5, §6, §4

microglia = details: any of the concentrations tested (data not shown)
Experimental: Activated microglia and astroglia are known to produce excessive amount of NO having the potential of damaging neurons in neurodegenerative disorders. We investigated the effect of NaPB on the expression of iNOS in microglia. LPS is a prototype inducer of various proinflammatory molecules in different cell types including mouse microglia. Therefore, primary mouse microglia preincubated with different doses of NaPB for 6 h were stimulated with LPS under serum-free condition. […] We used trichostatin A (TSA) and sodium butyrate (NaBu) for this purpose.

[9] = system: dopaminergic neurons of MPTP-intoxicated mice; details: 200 mg/kg body wt/day from 3 h after last MPTP, 7 d
Experimental: as §7
For acute MPTP intoxication, mice received four intraperitoneal (i.p.) injections of MPTP-HCl (18 mg/kg of free base; Sigma Chemical Co., St. Louis, Mo.) in saline at 2 hr intervals. Control animals received only saline. For chronic MPTP intoxication, mice received 10 injections of MPTP (s.c.; 25 mg/kg body weight) together with 10 injections of probenecid (i.p.; 250 mg/kg body weight) at an interval of 3.5 d.
Therefore, for short-term treatment, mice with acute MPTP 3 h after the last injection of MPTP. […]
Immunohistochemistry and quantitative morphology: Seven days after MPTP intoxication, mice were sacrificed and their brains fixed, embedded, and processed for tyrosine hydroxylase (TH) staining. […] Quantitation of striatal TH immunostaining was performed. […]

phospho-IκBα = details: 0.5 mM, 6 h preincubation, LPS 1 μg/ml
Experimental: (A) BV-2 microglial cells preincubated with 0.5 mM NaPB for 6 h were stimulated with 1 μg/ml LPS. At different minute of stimulation, the level of phospho-1κBα was monitored by Western blot.
Activation of NF-κB was monitored by IκBαphosphorylation, DNA binding activity by EMSA and transcriptional activity by reporter assays.

MPTP-intoxicated mice [10] = details: NaPB 200 mg/kg body wt/day from 3 h after last MPTP; MPTP alone approximately 72% loss
Experimental: We monitored the level of nigral GSH by HPLC.
Analysis of GSH: Nigral tissues were dissected and then sonicated in 0.2M perchloric acid solution followed by centrifugation of nigral extracts at 12,000 rpm for 10 mins at 4° C. Resulting supernatants were analyzed for GSH in Complete Stand-Alone HPLC-ECD System EiCOMHTEC-500 using gold working electrode (Eicorn We-AU) and mobile phase containing 99% 0.1M sodium phosphate buffer (pH 2.5), 1% MeOH. (v/v), and 50 mg/L EDTA-2Na.

[11] = 200 mg/kg body wt/d gavage from 1 d prior to MPTP, all time points tested (up to 24 h)

Experimental for p21^ras: A) Mice were treated with NaPB (200 mg/kg body wt/d.) via gavage from 1 d prior to MPTP injection. Six h after the last injection of MPTP, activation of p21^ras and p21^rac was monitored in ventral midbrain tissues. Experiment was repeated three times each time using two animal in each group. […] Results represent three independent experiments.
A) Mice were treated with NaPB (200 mg/kg body wt/d) via gavage from 1 d prior to MPTP injection. At different h of MPTP insult, nigral punches from mice were pooled together and analyzed for the activation of p21′ (A) and the expression of iNOS mRNA (B, RT-PCR; C, real-time PGR). Experiments were repeated three times each time using two animals in each group. ^ap<0.001 vs control (Oh)-iNOS.
Therefore, in order to delineate whether glial activation-associated events happen before or after the loss of dopaminergic neurons, we performed a time-course study to monitor nigral activation of p21^ras and expression of iNOS and striatal loss of dopamine in MPTP-intoxicated mice, Micropunches from the nigra were used for monitoring p21^ras and iNOS.
Animals and MPTP intoxications: Six- to eight-week old C57BL/6 mice were purchased from Harlan, Indianapolis, Ind. […]
Activation of p21^ras and p21^rac: Activation of p21^ras was monitored. […] Then the amount of activated p21^ras was determined in GST beads by a Western blot using a p21^ras specific antibody.

Substance: sodium phenylbutyrate [NaPB]
- IL-1β-induced production of NO (primary human astroglia): markedly inhibited
- IL-1β-induced activation of iNOS promoter (human iNOS promoter): markedly inhibited
- MPTP-induced mRNA expression of TNF-α in the nigra (TNF-α [1]): strongly inhibited
- MPTP-induced mRNA expression of IL-1β in the nigra (IL-1β [2]): strongly inhibited
- MPTP-induced mRNA expression of iNOS in the nigra (iNOS [3]; 200 mg/kg body wt/d from 3 h after last MPTP, RT-PCR, real-time PCR): strongly inhibited
- expression of iNOS mRNA in the nigra, time course (iNOS [3]; [11]): markedly inhibited
- MPTP-induced expression of iNOS protein (iNOS [3]; 200 mg/kg body wt/d oral from 3 h after last MPTP, 24 h): suppressed
- decrease in striatal dopamine (MPTP-intoxicated mice [4]): 20-25%
- LPS-induced mRNA expression of iNOS (iNOS [5]; RT-PCR, 5 h LPS): dose-dependently inhibited
- LPS-induced protein expression of iNOS (iNOS [5]; Western blot, 24 h LPS): dose-dependently inhibited
- MPP+-induced expression of TNF-α mRNA (TNF-α [6]): inhibited
- MPP+-induced expression of IL-1β mRNA (IL-1β [7]): inhibited
- MPP+-induced iNOS mRNA expression (iNOS [8]; 6 h preincubation, 1 μM MPP+ 5 h): suppressed
- MPP+-induced iNOS protein expression (iNOS [8]; 6 h preincubation, 1 μM MPP+ 24 h, Western blot): suppressed
- RasV12-induced expression of iNOS mRNA (iNOS [8]; RasV12-transfected cells, NaPB 6 h): attenuated
- activation of p21^ras in the nigra, time course (p21^ras; [11]): markedly inhibited
- MPTP-induced activation of p21^ras in the nigra (p21^ras; 200 mg/kg body wt/day gavage from 1 d prior to MPTP, 6 h after last MPTP): much decreased activation
- toxicity to microglia (MTT) (microglia): not toxic
- reduction in striatal TH ODs ([9]; vs MPTP alone (70% reduction)): less reduction
- reduction in SNpc TH-positive neurons ([9]; vs MPTP alone (approximately 75% loss)): less reduction
- LPS-induced phosphorylation of IκBα (phospho-IκBα): inhibited
- loss of nigral GSH (MPTP-intoxicated mice [10]): 18%
